{"source": "patent US12502361B2", "about": "“Method for treating dengue virus infection” (priority 2021, dated 2025)", "key": {"endosomal acidification": {"tested_on": "endosomal acidification", "assay": "Acridine orange staining of endosomal acidification in DENV-infected BHK-21 cells", "assay_type": "cell-based, hamster", "conditions": "BHK-21 cells pretreated 1 h, DENV infection 2 h", "method": "Hoechst was used to label nuclear DNA. Scale bar: 100 μm.\nCells were washed with HBSS (Thermo Fisher Scientific) once and then stained with acridine orange agent (Sigma-Aldrich) and Hoechst 33258 (Thermo Fisher Scientific) in an incubator at 37° C. in 5% CO2. After 45 minutes, the cells were washed with HBSS once and rinsed with HBSS. Subsequently, cells were visualized with a fluorescence microscope (EVOS). Hoechst 33258 was used for nuclear staining.\nThe endosomal acidification step is critical for DENV uncoating to release the viral genome for further replication in the cytoplasm (Solomon et al., J Infect, 42, 2001, 104-115). Therefore, the pH-sensitive dye acridine orange (AO) was used to explore whether propofol affects the early stages of DENV infection accordingly (Kao et al., PLoS Negl Trop Dis, 12, 2018, e0006715)."}, "viral dsRNA": {"tested_on": "viral dsRNA", "assay": "dsRNA immunostaining in DENV2-infected BHK-21 cells", "assay_type": "cell-based, Dengue virus serotype 2", "conditions": "BHK-21 cells pretreated 1 h, DENV2 infection 6 h", "method": "DAPI was used to label nuclear DNA. […] Scale bar: 100 μm.\nCells were washed with ice-cold PBS 3 times and fixed with 4% paraformaldehyde (Sigma-Aldrich) at room temperature for 15 minutes. Then, the cells were washed 3 times with ice-cold PBS and permeabilized with permeabilization buffer (PBS containing 1% Triton X-100) at room temperature for 5 minutes. The cells were then washed 3 times with ice-cold PBS and immunoblocked with blocking buffer (PBS containing 1% BSA and 0.01% Triton X-100) at 4° C. for 30 minutes. Next, the cells were washed 3 times with ice-cold PBS and immunohybridized with mouse anti-dsRNA J2 primary antibody at 4° C. overnight. Subsequently, the cells were washed 3 times with ice-cold PBS and stained with Alexa Fluor 488-conjugated goat anti-mouse antibody (Thermo Fisher Scientific) at room temperature for 15 minutes. The cells were washed 3 times with ice-cold PBS and then visualized with fluorescence or confocal microscopy. DAPI (Sigma-Aldrich) was used for nuclear staining.\nFollowing endocytosis, the viral genome is released into the cytoplasm and undergoes genome replication (Solomon et al., J Infect, 42, 2001, 104-115)."}, "BHK-21 cells": {"tested_on": "BHK-21 cells", "conditions": "propofol 1 to 50 μg/ml, 24 h", "protocol": "Quantitative data are presented as the mean±SD of at least three independent experiments (n=3). ***p<0.001. ns, not significant.\nAccording to the manufacturer's instructions, cell cytotoxicity was assessed using Cytotoxicity Detection Kit assays (Roche Diagnostics, Lewes, UK)."}, "DENV2": {"tested_on": "DENV2", "conditions": "BHK-21 cells pretreated 1 h, DENV2 MOI=1, 24 h; doses of 5, 10, 25 and 50 μg/ml", "protocol": "Baby hamster kidney (BHK)-21 fibroblasts (ATCC, CCL10) were maintained in Dulbecco's modified Eagle's medium (DMEM; Thermo Fisher Scientific) containing 10% heat-inactivated fetal bovine serum (FBS, Biological Industries) and 1% penicillin-streptomycin (Thermo Fisher Scientific) at 37° C. in 5% CO2. […] The Aedes albopictus clone mosquito C6/36 cells (ATCC, CRL1660) were maintained in Minimum Essential Medium (MEM; Thermo Fisher Scientific) containing 10% heat-inactivated FBS, 1% penicillin-streptomycin (Thermo Fisher Scientific), 1% sodium pyruvate (Cat#11360-070, Thermo Fisher Scientific), 1% 4-(2-hydroxyethyl) piperazineethanesulfonic acid (HEPES; Cat#15630-080, Thermo Fisher Scientific) and 1% nonessential amino acids (NEAA; Cat#11140-035, Thermo Fisher Scientific) at 28° C. in 5% CO2. Dengue virus serotype 2 (DENV2, strain PL046) was obtained from Center Disease Control in Taiwan and propagated in a C6/36 cell monolayer at a multiplicity of infection (MOI) of 0.01. After incubation (28° C. in 5% CO2) for 5 days, the viral supernatants were collected and filtered with a 0.22 μm filter and then stored at −80° C. until use. Viral titers were determined by plaque assay using BHK-21 cells.\nBHK-21 cells were grown in a monolayer in a 12-well plate at 7×10^4 cells/well. […]"}, "[1]": {"tested_on": "luciferase-expressing DENV replicon", "conditions": "BHK-21-SGR replicon cells treated with or without propofol", "protocol": "Baby hamster kidney (BHK)-21 fibroblasts (ATCC, CCL10) were maintained in Dulbecco's modified Eagle's medium (DMEM; Thermo Fisher Scientific) containing 10% heat-inactivated fetal bovine serum (FBS, Biological Industries) and 1% penicillin-streptomycin (Thermo Fisher Scientific) at 37° C. in 5% CO2. BHK-21 cells harboring a luciferase-expressing DENV replicon (BHK-D2-Fluc-SGR-Neo-1) were maintained in DMEM with 10% heat-inactivated FBS, 1% penicillin-streptomycin, and 0.4 mg/ml G418 agent (Cat# A1720, Sigma-Aldrich) at 37° C. in 5% CO2.\nBHK-D2-Fluc-SGR-Neo-1 cells (replicons) were seeded in 96-well plates at 3,000 cells/well overnight.\nTo assess propofol's inhibitory activity on DENV infection, we next used BHK-21-SGR cells, a cellular replicon-based reporter assay, to examine propofol's translational targets."}, "DENV NS1": {"tested_on": "DENV NS1", "conditions": "BHK-21 cells pretreated 1 h, DENV2 MOI=1, 24 h post-infection", "protocol": "(§1) Cells were collected and extracted with lysis buffer containing a protease inhibitor cocktail (Sigma-Aldrich). The processed proteins were separated by 10% SDS polyacrylamide gel electrophoresis followed by transfer to a polyvinylidene difluoride (PVDF) membrane (Millipore). Then, the PVDF membrane was blocked with 5% nonfat milk in 0.05% Tween-20-containing Tris-buffer-based saline (TBS-T) at room temperature for 1 h. Next, the membrane was washed three times with TBS-T buffer and immunohybridized with the indicated primary antibodies at 4° C. overnight. Then, the membrane was washed with TBS-T buffer three times, followed by incubation with the indicated HRP-conjugated secondary antibodies at room temperature for 1 h. The antibody-protein complexes on the PVDF membrane were detected using an ECL Western blot detection kit (PerkinElmer). The signals of the identified proteins were captured with a film exposure system."}, "TNF-α [2]": {"tested_on": "TNF-α", "conditions": "RAW 264.7 cells, propofol 10 or 25 μg/ml, DENV2 MOI=10, 24 h", "protocol": "(§2) RAW 264.7 cells were pretreated without or with propofol (10 or 25 μg/ml) followed by infection with DENV2 (MOI=10) for 24 h. […] Quantitative data are presented as the mean±SD of the experiments (n=3). *p<0.05; ***p<0.001.\nAccording to the manufacturer's instruction, samples were harvested, and the concentration of mouse TNFα was determined using ELISA kit (Cat#88-7324-88, eBioscience).\n(§3) In this study, RAW 264.7 cells were pretreated with or without propofol (10 or 25 μg/ml) followed by infection with DENV for 24 h."}, "phospho-STAT1 and STAT1": {"tested_on": "phospho-STAT1 and STAT1", "conditions": "RAW 264.7 cells, propofol 10 or 25 μg/ml, DENV2 MOI=10, 24 h", "protocol": "as §2, §1, §3"}, "TNF-α [3]": {"tested_on": "TNF-α", "conditions": "CoCl2-treated hypoxic BV2 microglia; cited from earlier work"}, "TNF-α [4]": {"tested_on": "TNF-α", "conditions": "cecal ligation and puncture-administrated rat liver; cited from earlier work"}}, "note": "Where two headings read alike, the source gives them in different places.", "data": [{"smiles": "CC(C)c1cccc(C(C)C)c1O", "note": "[propofol, 2,6-diisopropylphenol]", "values": [{"measurement": "endosomal acidification (acridine orange staining)", "setting": "endosomal acidification", "result": "does not affect endosomal acidification"}, {"measurement": "viral dsRNA expression (immunostaining, MFI)", "setting": "viral dsRNA", "result": "does not affect blocking DENV viral dsRNA replication"}, {"measurement": "cytotoxicity (LDH assay)", "setting": "BHK-21 cells", "result": "did not cause cytotoxicity"}, {"measurement": "DENV virion release (viral titer, plaque assay)", "setting": "DENV2", "result": "significantly (p<0.001) reduced DENV virion release"}, {"measurement": "luciferase activity of replicons (viral protein translation)", "setting": "[1]", "result": "no remarkable difference"}, {"measurement": "viral NS1 protein expression (western blot)", "setting": "DENV NS1", "result": "decreased in a dose-dependent manner"}, {"measurement": "mouse TNF-α production (ELISA)", "setting": "TNF-α [2]", "result": "reduced the cytokine levels in a dose-dependent manner"}, {"measurement": "protein expressions of phospho-STAT1 and STAT1 (western blot)", "setting": "phospho-STAT1 and STAT1", "result": "inhibited by propofol treatment"}, {"measurement": "gene and cytokine productions of TNF-α", "setting": "TNF-α [3]", "result": "reduces both the gene and cytokine productions of TNF-α"}, {"measurement": "gene and cytokine productions of TNF-α", "setting": "TNF-α [4]", "result": "reduces both the gene and cytokine productions of TNF-α"}]}, {"smiles": "CO/C1=C\\C(C)=C\\[C@@H](C)[C@@H](O)[C@@H](C)C/C(C)=C/C=C/[C@H](OC)[C@@H]([C@@H](C)[C@@H](O)[C@H](C)[C@@]2(O)C[C@@H](O)[C@H](C)[C@@H](C(C)C)O2)OC1=O", "note": "[Baf A1, bafilomycin A1]", "values": [{"measurement": "endosomal acidification (acridine orange staining)", "setting": "endosomal acidification", "result": "endosome acidification was blocked"}, {"measurement": "viral dsRNA expression (immunostaining, MFI)", "setting": "viral dsRNA", "result": "reduced dsRNA expression"}]}]}
